Test results published in patent US20240277708A1, “Use of [1,2,4] Triazolo [4,3-B] Pyridazine Derivative For Preventing and Treating Senescence and Senescence-Related Diseases” (The Eighth Affiliated Hospital, Sun Yat-Sen University, priority 2023, published 2024).

Tested on: C57BL/6 mice
Experiment: Safety profile in IPF model and control mice: body weight and routine blood test
Type: in vivo
Protocol: In order to test the safety profile of C1632, the IPF model C57BL/6 mice and the control mice were intraperitoneally injected with 68 mg/kg C1632 three times a week and weighed, respectively. At the end of the experiment, the whole blood was a collected for routine blood test. […] In addition, the routine blood test results of mice in each group are mostly within the reference interval.

[1] = normal mice, 68 mg/kg i.p. three times a week

CC(=O)N(C)c1cccc(-c2ccc3nnc(C)n3n2)c1 [C1632]
Routine blood tests overall (IPF mice, 68 mg/kg i.p. three times a week, FIG. 11B to 11S): does not cause deterioration | Body weight compared with the corresponding saline group (IPF model and control mice, 68 mg/kg intraperitoneally three times a week, FIG. 11A): does not significantly change the body weight | Mean platelet volume (MPV), model group (IPF model mice, 68 mg/kg i.p. three times a week): no significant effect | PDW, fibrotic mice (fibrotic (IPF) mice, 68 mg/kg i.p. three times a week): no significant effect | Mean platelet volume (MPV), normal mice [1]: significantly increase | PDW, normal mice [1]: significantly inhibits
